Measurements published in the NIST ThermoML archive (doi:10.1021/je034208m).

Assay: xn = mol fraction of the nth substance listed
Conditions: 101.33 kPa, Liquid; for speed of sound: Sing-around technique in a fixed-path interferometer

CCCC(C)O (stereo not drawn) [pentan-2-ol] + CCCCCCCC
Conditions | mass density, 293.15 K [kg/m3] | mass density, 298.15 K [kg/m3] | mass density, 303.15 K [kg/m3] | speed of sound, 293.15 K [m/s] | speed of sound, 298.15 K [m/s] | speed of sound, 303.15 K [m/s] | viscosity, 293.15 K [mPa·s] | viscosity, 298.15 K [mPa·s] | viscosity, 303.15 K [mPa·s]
x1 = 0.0509 | 705.58 | 701.48 | 697.35 | 1190 | 1170 | 1149 | 0.548 | 0.517 | 0.486
x1 = 0.105 | 709.15 | 705.03 | 700.87 | 1189 | 1169 | 1148 | 0.566 | 0.53 | 0.498
x1 = 0.1853 | 714.98 | 710.84 | 706.65 | 1188 | 1168 | 1147 | 0.598 | 0.56 | 0.525
x1 = 0.2976 | 723.78 | 719.63 | 715.43 | 1188 | 1168 | 1147 | 0.658 | 0.613 | 0.572
x1 = 0.3968 | 732.4 | 728.24 | 724.03 | 1189 | 1169 | 1149 | 0.732 | 0.678 | 0.629
x1 = 0.4953 | 741.91 | 737.73 | 733.5 | 1192 | 1172 | 1153 | 0.841 | 0.77 | 0.709
x1 = 0.5965 | 752.73 | 748.53 | 744.29 | 1198 | 1178 | 1158 | 1.008 | 0.915 | 0.826
x1 = 0.6993 | 764.97 | 760.76 | 756.5 | 1207 | 1187 | 1167 | 1.296 | 1.147 | 1.022
x1 = 0.7971 | 777.92 | 773.74 | 769.48 | 1218 | 1199 | 1179 | 1.727 | 1.495 | 1.307
x1 = 0.8997 | 792.82 | 788.69 | 784.49 | 1233 | 1214 | 1195 | 2.531 | 2.133 | 1.821
x1 = 0.9509 | 800.83 | 796.75 | 792.59 | 1242 | 1223 | 1204 | 3.19 | 2.635 | 2.215
x1 = 1 | 809.04 | 805.01 | 800.9 | 1250 | 1232 | 1214 | 4.001 | 3.273 | 2.708
